We go through seven molecules from patent publication US20030087753A1, “System for microbial control of a fluid” (priority 2001, published 2003).

Data set [1] has as its system Staphylococcus aureus (ATCC 6538). In words: Growth inhibition of Staphylococcus aureus by m-cresol adsorbed on zeolite USY (Eur. Pharm. efficacy of antimicrobial preservation). It is filed as cell-based. The conditions noted are these: 5 mg m-cresol/ml dissolved in water, positive control. The method, then: This example illustrates growth inhibition of Staphylococcus aureus (ATCC 6538), FU ml-1) after incubation with m-cresol adsorbed on zeolite. Test according to Eur. Pharm. nd Ed. VIII 14 (1992). Efficacy of antimicrobial preservation.
Ultra-stable zeolite Y (USY, 63-125 μm particles) was incubated with m-cresol […] after which the zeolite was sucked dry and further dried in warm closet overnight. Zeolite with adsorbed m-cresol was then suspended in PBS and was incubated with Staphylococcus aureus at 37° C. The concentration of m-cresol in the solution after the suspension of zeolite was 0.14 mg/ml.

The nature of data set [2]: Adsorption and release of various antibiotics on ultra-stable zeolite Y (USY). As to conditions: for Amount antibiotic in 20 mg zeolite/ml: USY suspended to 20 mg/ml; for Release concentration of antibiotic: dried USY suspended to 20 mg/ml in buffer; for Amount adsorbed antibiotic/mg zeolite: ultra-stable zeolite Y (USY), amount calculated. It counts as physicochemical. The method, then:
This example illustrates adsorption and release of various antibiotics. Ultra-stable zeolite Y (USY) was incubated with various antibiotics and the amounts absorbed to the zeolite were calculated. Then the zeolite was dried and suspended to 20 mg/ml in buffer and the concentrations of released antibiotics in the solutions were determined.

Data set [3] can be described thus: Release of cephalothin from ultra-stable zeolite Y (USY) at pH 2.5 and pH 8.0. It counts as physicochemical. As to conditions: 20 mg/ml USY; 10 mM phosphate buffer pH 8.0 after 10 mM glycin pH 2.5. The method, then: This example illustrates release of cephalothin from ultra-stable zeolite Y (USY) and is described with reference to the diagram in FIG. 10.
Ultra-stable zeolite Y (USY) was incubated with the antibiotic cephalothin 5 mg/ml after which the zeolite was sucked dry and further dried in warm closet. Zeolite with adsorbed cephalothin was suspended repeatedly to 20 mg/ml in 10 mM glycin pH 2.5 (▪) and the concentration of cephalothin in the solutions was determined by absorbency measurement at 260 nm. Then the zeolite was suspended in 10 mM phosphate buffer pH 8.0 (●).

In the case of `Cc1cccc(O)c1` [Free m-cresol, m-cresol], the CFU/ml is reported as 5.9 × 10^6 CFU/ml in data set [1] (incubation time 0 h); 1.2 × 10^2 CFU/ml in data set [1] (incubation time 2 h); 24 CFU/ml in data set [1] (incubation time 4 h); 3 CFU/ml in data set [1] (incubation time 8 h); 0 CFU/ml in data set [1] (incubation time 24 h); 0 CFU/ml in data set [1] (incubation time 48 h).

For the molecule `CC1(C)S[C@@H]2[C@H](NC(=O)[C@H](N)c3ccccc3)C(=O)N2[C@H]1C(=O)O` [Ampicilin], in data set [2], the “Amount antibiotic in 20 mg zeolite/ml” value turned out to be 2.8 mg/mL, the “Release concentration of antibiotic” value was 400 µg/mL and the “Amount adsorbed antibiotic/mg zeolite” value is on record as 0.14 mg.

Regarding `O=C(N[C@H](CO)[C@H](O)c1ccc([N+](=O)[O-])cc1)C(Cl)Cl` [Chloramphemicol], in data set [2], the “Amount antibiotic in 20 mg zeolite/ml” value is 2.5 mg/mL, the “Release concentration of antibiotic” value was found to be 7 µg/mL and the “Amount adsorbed antibiotic/mg zeolite” value was 0.125 mg.

As to `CN(C)[C@@H]1C(=O)C(C(N)=O)=C(O)[C@@]2(O)C(=O)C3=C(O)c4c(O)cccc4[C@@](C)(O)[C@H]3C[C@@H]12` [Tetracyclin], in data set [2], the “Amount antibiotic in 20 mg zeolite/ml” value worked out at 1.8 mg/mL, the “Release concentration of antibiotic” value stood at 220 µg/mL and the “Amount adsorbed antibiotic/mg zeolite” value was 0.09 mg.

As to `[H]/N=C(/N)N[C@H]1[C@H](O)[C@@H](O)[C@H](O[C@@H]2O[C@@H](C)[C@](O)(C=O)[C@H]2O[C@@H]2O[C@@H](CO)[C@H](O)[C@@H](O)[C@@H]2NC)[C@@H](N/C(N)=N\[H])[C@@H]1O` [Streptomycin], in data set [2], the “Amount antibiotic in 20 mg zeolite/ml” value is 9.6 mg/mL, the “Release concentration of antibiotic” value stood at 4800 µg/mL and the “Amount adsorbed antibiotic/mg zeolite” value is given as 0.48 mg.

As to `CC(=O)OCC1=C(C(=O)O)N2C(=O)[C@@H](NC(=O)Cc3cccs3)[C@H]2SC1` [Cephalothin], the “release of cephalothin from the zeolite on change of pH” value in data set [3] was “increased release”. Besides, in data set [2], the “Amount antibiotic in 20 mg zeolite/ml” value amounted to 4.2 mg/mL, the “Release concentration of antibiotic” value turned out to be 4.6 µg/mL and the “Amount adsorbed antibiotic/mg zeolite” value is given as 0.21 mg.

Take Gentamycin: in data set [2], the “Amount antibiotic in 20 mg zeolite/ml” value came out at 3.6 mg/mL and the “Amount adsorbed antibiotic/mg zeolite” value is given as 0.18 mg.
